Where “and” joins values, the source holds several entries; their conditions need not be identical. Identical values can stand only once.
Test: molar heat capacity at constant pressure
Details: 101.33 kPa, Liquid, Small sample (50 mg) DSC

CCCCCCCCCCCCCC[P+](CCCCCC)(CCCCCC)CCCCCC.N#C[N-]C#N [tetradecyl(trihexyl)phosphonium dicyanamide]
Details	molar heat capacity at constant pressure
313.15 K	1060.2 J/K/mol and 1065.1 J/K/mol and 1061.3 J/K/mol
318.15 K	1065.7 J/K/mol and 1070.6 J/K/mol and 1067.3 J/K/mol
323.15 K	1075.6 J/K/mol and 1080 J/K/mol and 1076.1 J/K/mol
328.15 K	1089.3 J/K/mol and 1086 J/K/mol and 1084.4 J/K/mol
333.15 K	1094.3 J/K/mol and 1099.2 J/K/mol and 1095.4 J/K/mol
338.15 K	1105.3 J/K/mol and 1109.1 J/K/mol and 1106.9 J/K/mol
343.15 K	1114.6 J/K/mol and 1119.6 J/K/mol and 1116.8 J/K/mol
348.15 K	1124.5 J/K/mol and 1129.5 J/K/mol and 1127.3 J/K/mol
353.15 K	1135 J/K/mol and 1140.5 J/K/mol and 1137.2 J/K/mol
358.15 K	1145.4 J/K/mol and 1150.4 J/K/mol and 1147.6 J/K/mol
363.15 K	1155.3 J/K/mol and 1160.3 J/K/mol
368.15 K	1164.1 J/K/mol and 1169.1 J/K/mol and 1165.2 J/K/mol
373.15 K	1172.9 J/K/mol and 1177.9 J/K/mol and 1173.5 J/K/mol
378.15 K	1180.6 J/K/mol and 1186.1 J/K/mol and 1190.5 J/K/mol
383.15 K	1188.9 J/K/mol and 1194.4 J/K/mol and 1194.9 J/K/mol
388.15 K	1197.7 J/K/mol and 1203.2 J/K/mol and 1204.8 J/K/mol
393.15 K	1205.9 J/K/mol and 1212 J/K/mol and 1214.2 J/K/mol
398.15 K	1213.6 J/K/mol and 1219.7 J/K/mol and 1220.2 J/K/mol
403.15 K	1221.3 J/K/mol and 1226.8 J/K/mol and 1227.9 J/K/mol
408.15 K	1227.4 J/K/mol and 1233.4 J/K/mol and 1234 J/K/mol
413.15 K	1234.5 J/K/mol and 1241.1 J/K/mol and 1244.4 J/K/mol

CCn1cc[n+](C)c1.O=S(=O)([N-]S(=O)(=O)C(F)(F)F)C(F)(F)F
Details	molar heat capacity at constant pressure
343.15 K	531 J/K/mol and 533.4 J/K/mol and 533.7 J/K/mol
348.15 K	531.8 J/K/mol and 534.1 J/K/mol and 534.9 J/K/mol
353.15 K	533 J/K/mol and 536.1 J/K/mol
358.15 K	537.3 J/K/mol and 537.7 J/K/mol and 534.9 J/K/mol
363.15 K	536.1 J/K/mol and 538.4 J/K/mol and 539.2 J/K/mol
368.15 K	537.7 J/K/mol and 539.6 J/K/mol and 540.4 J/K/mol
373.15 K	538.8 J/K/mol and 541.6 J/K/mol and 542.4 J/K/mol
378.15 K	540.8 J/K/mol and 542.7 J/K/mol and 543.5 J/K/mol
383.15 K	541.6 J/K/mol and 543.9 J/K/mol
388.15 K	542.7 J/K/mol and 545.1 J/K/mol and 545.5 J/K/mol
393.15 K	544.7 J/K/mol and 546.7 J/K/mol
398.15 K	545.5 J/K/mol and 547.4 J/K/mol and 548.2 J/K/mol
403.15 K	547.4 J/K/mol and 549.4 J/K/mol
408.15 K	548.6 J/K/mol and 550.2 J/K/mol and 549.8 J/K/mol
413.15 K	549.4 J/K/mol and 552.1 J/K/mol and 550.2 J/K/mol
418.15 K	550.6 J/K/mol and 552.5 J/K/mol and 551.7 J/K/mol
423.15 K	551.4 J/K/mol and 552.9 J/K/mol and 552.5 J/K/mol
428.15 K	552.1 J/K/mol and 553.7 J/K/mol and 552.9 J/K/mol
433.15 K	552.5 J/K/mol and 554.9 J/K/mol and 555.3 J/K/mol
438.15 K	554.1 J/K/mol and 556.1 J/K/mol and 555.7 J/K/mol
443.15 K	554.9 J/K/mol and 556.4 J/K/mol and 556.1 J/K/mol
448.15 K	555.7 J/K/mol and 557.2 J/K/mol
453.15 K	556.4 J/K/mol and 558.4 J/K/mol and 556.8 J/K/mol
458.15 K	557.6 J/K/mol and 558.4 J/K/mol and 558 J/K/mol
463.15 K	557.6 J/K/mol and 558.8 J/K/mol

CCCCCCCCCCCCCC[P+](CCCCCC)(CCCCCC)CCCCCC.[Cl-] [trihexyl(tetradecyl)phosphonium chloride]
Details	molar heat capacity at constant pressure
338.15 K	835 J/K/mol and 833.5 J/K/mol and 834 J/K/mol
343.15 K	838.7 J/K/mol and 837.1 J/K/mol and 837.6 J/K/mol
348.15 K	842.8 J/K/mol [middle of 4 runs]
353.15 K	850.6 J/K/mol and 848.5 J/K/mol and 849.1 J/K/mol
358.15 K	857.9 J/K/mol and 855.3 J/K/mol and 854.8 J/K/mol
363.15 K	863.6 J/K/mol and 861.5 J/K/mol and 860.5 J/K/mol
368.15 K	870.9 J/K/mol and 868.3 J/K/mol and 867.8 J/K/mol
373.15 K	876.6 J/K/mol and 874.5 J/K/mol and 874 J/K/mol
378.15 K	881.8 J/K/mol [middle of 4 runs]
383.15 K	889.6 J/K/mol and 886.5 J/K/mol and 888 J/K/mol
388.15 K	893.7 J/K/mol [middle of 4 runs]
393.15 K	901 J/K/mol and 899.4 J/K/mol and 898.4 J/K/mol
398.15 K	905.2 J/K/mol [middle of 4 runs]
403.15 K	910.3 J/K/mol [middle of 4 runs]
408.15 K	917.6 J/K/mol and 915 J/K/mol and 916.1 J/K/mol
413.15 K	922.8 J/K/mol [middle of 4 runs]
418.15 K	928 J/K/mol [middle of 4 runs]
423.15 K	933.2 J/K/mol and 931.1 J/K/mol and 932.7 J/K/mol
428.15 K	937.9 J/K/mol [middle of 4 runs]
433.15 K	944.1 J/K/mol [middle of 4 runs]
438.15 K	948.8 J/K/mol [middle of 4 runs]
443.15 K	952.4 J/K/mol and 953.4 J/K/mol and 951.4 J/K/mol
448.15 K	957.1 J/K/mol [middle of 4 runs]
453.15 K	961.2 J/K/mol [middle of 4 runs]
458.15 K	965.4 J/K/mol [middle of 4 runs]
463.15 K	968 J/K/mol [middle of 4 runs]

— the NIST ThermoML archive (doi:10.1016/j.jct.2011.08.019)
